Activity calls are given as the source filed them.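 How the source made its calls: active means compounds giving half or more protection of infected cells from virus-caused growth loss, again on retest; inactive means the rest.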
Test system: CEM cells HIV-1 protection, formazan growth assay
Experiment: NCI AIDS Antiviral Assay
Conditions: for IC50: measured here: growth of uninfected CEM cells
Procedure, shortened: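 Protection of CEM cells against HIV-1 measured as cell growth via soluble formazan read-out, with five concentrations tested on both infected and uninfected cells; failure to protect may reflect toxicity.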

SMILES | EC50 | IC50 | outcome
O=c1[nH]c(=O)ss1 | > 105 µM | > 100 µM | –
Nc1ncnc2c1ncn2C1C[C@H](O)[C@]2(CO)C[C@H]12 (some centres not stated) | > 50.1 µM | > 50.1 µM | –
CC(=O)CC(=O)ON(C)C(=O)Cc1ccccc1 | > 1000 µM | > 1000 µM | –
O/N=C(/C(Cl)=C(Cl)Cl)C(Cl)Cl | > 200 µM | 33.1 µM | –
CN(C)C(=Nc1ccc(NC(=O)c2ccc(C(=O)Nc3ccc(N=C(Nc4ccccc4)N(C)C)cc3)cc2)cc1)Nc1ccccc1 | – | – | inactive
S=P1(c2ccccc2)Nc2ccc(Cl)cc2N1 (configuration not stated) | > 468 µM | 9.12 µM | –
COc1ccc(Cc2cnc(N)nc2N)cc1OC | – | – | inactive
Clc1ccc(/C=N\N2CCCCCC2)c(Cl)c1 | – | – | inactive
OC(C#CCN1CCCC1)(c1ccccc1)c1ccc(F)cc1.[C-]#[O+].[C-]#[O+].[C-]#[O+].[C-]#[O+].[C-]#[O+].[C-]#[O+].[Co].[Co] (configuration not stated) | > 200 µM | 7.41 µM | –
C[N+](C)(C)C.[C-]#[O+].[C-]#[O+].[C-]#[O+].[C-]#[O+].[Cr].c1ccc(N=N[N-]c2ccccc2)cc1 | > 1.26 µM | > 1.26 µM | –
CCOC(=O)NC(=O)c1cn(CCCOC(=O)NCCCCCCNC(=O)OCCCn2cc(C(=O)NC(=O)OCC)c(=O)[nH]c2=O)c(=O)[nH]c1=O | – | – | inactive
CC(O)CN1c2ccccc2Sc2ccc(Cl)cc21 (configuration not stated) | > 200 µM | 42.7 µM | –
COC(=O)CC1C(COC(C)=O)OC(n2cc(C)c(=O)[nH]c2=O)C1OC(C)=O (configuration not stated) | – | – | inactive
CC(=O)O[C@H]1CC[C@H]2[C@@H]3CCC(C(C)=O)[C@H](C(=O)O)[C@H]3CC[C@]12C (some centres not stated) | > 200 µM | > 200 µM | –
O=C(O)CSCc1cc(C(=O)Nc2ccc(/C=C/c3ccc(NC(=O)c4cc(CSCC(=O)O)c5cccnc5c4O)cc3S(=O)(=O)O)c(S(=O)(=O)O)c2)c(O)c2ncccc12 | 0.832 µM | 22.4 µM | –
Cn1c(=O)n(CC2CS2)c2ccccc21 (configuration not stated) | > 1120 µM | 24.5 µM | –
CC1=CC2CCC1(C)C/C2=C(/C)OC=O (configuration not stated) | – | – | inactive
O=C(c1ccccc1)C(C(=O)c1ccccc1)C1(O)C(=O)c2ccccc2C1=O | – | – | inactive
CCOC(=O)c1cc2c3c(c(C(C)=O)c(OC)c2[nH]1)N(C(=O)CC)CC3 | > 200 µM | 16.2 µM | –
O=C1c2scc(-c3ccc(F)cc3)c2-n2cccc21 | > 200 µM | 30.2 µM | –
O=C1C(c2ccccc2)=[N+]([O-])c2ccccc21 | – | – | inactive

SMILES | EC50 | IC50 | outcome
O=C(O)c1ccc(NC(=O)C2C(=O)C(=O)N(c3ccc(C(=O)O)cc3)C2=O)cc1 (configuration not stated) | > 47.9 µM | > 47.9 µM | –
CCOP(=O)(CCP(=O)(OCC)OCC)OCC.C[CH2][Sn]([Cl])([Cl])[CH2]C | – | – | inactive
CN(Cc1cnc2nc(N)nc(N)c2n1)c1ccc(C(=O)NC(CCC(=O)O)C(=O)O)c2ccccc12 (configuration not stated) | > 0.2 µM | 0.00219 µM | –
C/C(=N\O)c1ccc2c3c(ccc([N+](=O)[O-])c13)CC2 | > 200 µM | 46.8 µM | –
COC(=O)C(=O)C(C(=O)C(=O)Nc1ccc([N+](=O)[O-])cc1[N+](=O)[O-])c1nc2ccc([N+](=O)[O-])cc2[nH]c1=O (configuration not stated) | > 468 µM | 141 µM | –
COC(=O)CCC12CCC(=O)C1[C@@H](C(=O)OC)C[C@H]2C(=O)OC (some centres not stated) | – | – | inactive
CC1(C)CC(C)(C)C1=NNC(N)=O | > 200 µM | > 200 µM | –
CCOC(=O)c1ccc(NC(=O)Nc2ncccc2C)cc1 | > 200 µM | > 200 µM | –
CNC(c1ccncc1)C(NC)c1ccncc1 (configuration not stated) | > 200 µM | > 200 µM | –
COC(=O)n1c(=O)nc2c3c(ncn21)Oc1c(c(-c2ccccc2)nn1-c1ccccc1)C3c1ccc(Cl)cc1 (configuration not stated) | > 100 µM | 2.34 µM | –
CC(C)c1ccc(C2NC(=S)NC3=C2c2ccccc2C3=O)cc1 (configuration not stated) | > 107 µM | 14.8 µM | –
COc1ccc(Nc2nc(C#N)c(N)s2)cc1 | > 490 µM | 117 µM | –
CSC1=N/C(=C\c2cccs2)C(=O)N1CN1CCCCC1 | > 200 µM | > 200 µM | –
CC(C)(CO)NC(=O)c1cccs1 | > 200 µM | > 200 µM | –
O=C1/C(=C/c2ccc(Cl)cc2)Cc2ccccc21 | > 5.62 µM | > 5.62 µM | –
COc1cc2c3c(c1)ncn3C(=O)CCS2 | > 200 µM | > 200 µM | –
O=C(O)c1cc(Cc2cc(C(=O)O)c(O)c(C(=O)c3ccc(O)c(C(=O)O)c3)c2)ccc1O | 537 µM | 832 µM | –
CCN(CC)CCOc1ccc(/C(C#N)=C/c2ccc(SC(C)C)cc2)cc1 | > 100 µM | 1.41 µM | –
O=C(/C=C/c1ccc(Cl)c(Cl)c1)c1ccc2ccccc2c1 | > 11.5 µM | > 11.5 µM | –
O=C1CCC2(c3ccccc3)Nc3ccccc3N12 (configuration not stated) | > 200 µM | 126 µM | –
COC(=O)CN(CC(=O)NCCCBr)C1CCCCC1N(CC(=O)OC)CC(=O)OC (configuration not stated) | > 200 µM | > 200 µM | –

SMILES | EC50 | IC50 | outcome
CCCCCOCC(O)CO (configuration not stated) | – | – | inactive
O=C1O/C(=C(/Cl)c2cccc3ccccc23)c2ccccc21 | – | – | inactive
CC[C@@H](C)C(=O)O[C@H]1[C@H](O)[C@H]2[C@@H](CN3C[C@@H](C)CC[C@H]3[C@@]2(C)O)[C@@H]2CC34O[C@]5(O)[C@@H](OC(=O)[C@@](C)(O)CC)CC[C@@]3(C)[C@@H]5[C@@H](OC(C)=O)[C@@H](OC(C)=O)[C@H]4[C@@]21O | > 200 µM | > 200 µM | –
NS(=O)(=O)c1ccc(NCc2cccc3c(=O)c4ccc(Cl)cc4oc23)cc1 | > 100 µM | 4.07 µM | –
CCOC(=O)CCC(NC(=O)OCc1ccccc1)C(=O)NC(CCC(=O)OCC)C(=O)NC(CCC(=O)OCC)C(=O)NC(CCC(=O)OCC)C(=O)NC(CCC(=O)OCC)C(=O)NC(CCC(=O)OCC)C(=O)NC(CCC(=O)OCC)C(=O)NC(CCC(=O)OCC)C(=O)NC(CCC(=O)OCC)C(=O)NC(CCC(=O)OCC)C(=O)NC(CCC(=O)OCC)C(=O)NC(CCC(=O)OCC)C(=O)OCC (configuration not stated) | – | – | inactive
NP(=O)(OCC1=CC(=O)c2ccccc2C1=O)N(CCBr)CCBr (configuration not stated) | – | – | inactive
Nc1ccc(S(=O)Cc2ccc(C(=O)O)cc2[N+](=O)[O-])cc1 (configuration not stated) | > 776 µM | > 776 µM | –
CC1(C)CCCCCC(O)C(O)CCC(C)(C)C1=O (configuration not stated) | > 200 µM | > 200 µM | –
Cc1c([N+](=O)[O-])c(=O)oc2c1ccc1occc(=O)c12 | > 132 µM | 117 µM | –
CCOC(=O)/C(F)=C/c1cccc([N+](=O)[O-])c1 | > 151 µM | > 151 µM | –
O=C(O)C1=NN(c2ccc(S(=O)(=O)O)cc2)C(=O)C1N=Nc1ccc(S(=O)(=O)O)cc1 (configuration not stated) | – | – | inactive
O=C1CC(c2cccc(Br)c2)n2cccc21 (configuration not stated) | – | – | inactive
COC(=O)c1c(C)cccc1C1CN=NC12Cc1ccc(C)c(C)c1C2=O (configuration not stated) | > 200 µM | 15.1 µM | –
COC(=O)[C@H]1C(=CBr)[C@@H]1C(=O)OC.[C-]#[O+].[C-]#[O+].[C-]#[O+].[C-]#[O+].[Fe] | > 200 µM | > 200 µM | –
O=C(CSc1c2ccccc2nc2ccccc12)Nc1ccccc1-c1ccccc1NC(=O)CSc1c2ccccc2nc2ccccc12 | > 1.91 µM | > 1.91 µM | –
CCCCCCNC(=O)Sc1ccccc1C(=O)N[C@H](C)C(N)=O | 0.141 µM | 107 µM | –
Cc1nc2c(ccc3[nH]c4ccccc4c32)s1 | – | – | inactive
O=C1c2ccccc2C(=O)N1C/C=N/NS(=O)(=O)c1ccc(Br)cc1 | > 112 µM | > 112 µM | –
CC1=C(C)C2(OC1=O)C(O)C(C)[C@]1(O)CCC3C4CC=C5CC=CC(=O)[C@]5(C)C4C[C@@]2(O)[C@@]31C (some centres not stated) | – | – | inactive
COc1ccc(-c2oc3cc(OC)c(OC)c(O)c3c(=O)c2O)cc1O | > 200 µM | 1.05 µM | –
O=C(Nc1ccc(/C=C/c2ccc(NC(=O)c3ccc(N=Nc4cc(S(=O)(=O)O)c5cccnc5c4O)cc3)cc2S(=O)(=O)O)c(S(=O)(=O)O)c1)c1ccc(N=Nc2cc(S(=O)(=O)O)c3cccnc3c2O)cc1 | 17.8 µM | > 100 µM | –

SMILES | EC50 | IC50 | outcome
COc1ccc(OC)c(NC(=O)C(=O)Nn2c(=S)[nH]c3ccccc3c2=O)c1 | > 631 µM | 372 µM | –
O=[N+]([O-])c1ccc(CSc2nncc3[nH]cnc23)cc1 | 31.6 µM | 63.1 µM | –
Cc1ccc(SCc2nc3ccccc3c(C)[n+]2[O-])cc1 | 9.33 µM | 49 µM | –
Nc1ccc(S2(c3ccc(N)cc3)C=C(c3ccccc3)C(c3ccccc3)=C2)cc1 | > 200 µM | > 200 µM | –
O=c1oc2cc(O)ccc2c(O)c1C(c1ccc(/C=C/c2ccccc2)cc1)c1c(O)c2ccc(O)cc2oc1=O | > 200 µM | 74.1 µM | –
CC(C)=CCc1ccc2[nH]c3c(c2c1)C(=O)C(=O)C(C)=C3C(O)C(C)O (configuration not stated) | > 200 µM | 1.95 µM | –
C=CCCCCCCCCC(=O)NC(C)C(C)(C)C (configuration not stated) | > 200 µM | 74.1 µM | –
CC1=C(N2CCOCC2)C(N2CCOCC2)=C(C)C(=O)C1=O | > 200 µM | 14.5 µM | –
O=C(O)COc1ccc(C(=O)/C(SS/C(C(=O)c2ccc(OCC(=O)O)c(Cl)c2Cl)=C2\C=C(c3ccc(F)cc3)SS2)=C2/C=C(c3ccc(F)cc3)SS2)c(Cl)c1Cl | > 37.2 µM | > 37.2 µM | –
CC(=O)C1CC(C)=CCC12C(=O)Nc1ccccc12 (configuration not stated) | > 195 µM | > 195 µM | –
Cc1ccccc1C=NC12CC3CC(CC(C3)C1)C2 | > 53.7 µM | > 53.7 µM | –
COC(=O)/C=C/N1CC1 | > 200 µM | > 200 µM | –
COC(=O)[C@]1(C)CCCC2(C)C1CC[C@H]1C=C(C)[C@H]3CCC12C3 (some centres not stated) | > 112 µM | > 112 µM | –
COc1c2cc([N+](=O)[O-])cc1CN(C(=O)C(F)(F)F)CCOCCN(C(=O)C(F)(F)F)C2 | > 200 µM | > 200 µM | –
c1cc(-c2ccsc2-c2ccsc2)cs1 | > 200 µM | 52.5 µM | –
O=c1c2nc3ccccc3c(=O)n2ncn1-c1ccccc1Cl | > 200 µM | > 200 µM | –
COC(CN1C=C(Sc2ccccc2)CC1)OC | > 97.7 µM | 16.6 µM | –
CC(C)(C)OC(=O)N(CCCN)CCCCN(CCCN)C(=O)OC(C)(C)C | – | – | inactive
CC#CC(O)(C(=O)OCCCN(C)C)C1CCCCC1 (configuration not stated) | > 200 µM | > 200 µM | –
COc1ccc(NC(C)c2ccncc2)cc1 (configuration not stated) | > 200 µM | > 200 µM | –

Reference: PubChem BioAssay AID179 (DTP/NCI, 2004)
